Common to all, as to experiment: NCI-60 cell line screen, 48 h
The test system of assay [1] is 786-0.
For assay [2], the system named is CCRF-CEM.
The subject of assay [3] is COLO 205.
For assay [4], the system named is HCT-15.
The subject of assay [5] is HL-60.
Assay [6] relates to HOP-62.
Assay [7] relates to K562.
For assay [8], the system named is MDA-MB-435.
Assay [9] deals with Malme-3M.
Assay [10] concerns NCI-H522.
The test system of assay [11] is RPMI-8226.
In assay [12] the test system is RXF 393.
Assay [13] relates to SF-539.
In assay [14] the test system is SK-MEL-28.
Assay [15] concerns SK-OV-3.
Assay [16] concerns SR.
In assay [17] the test system is TK-10.
The test system of assay [18] is UACC-257.
Assay [19] has as its system UACC-62.
Assay [20] relates to NCI/ADR-RES.

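Protocol summary: plate cells (96-well), add compound at 5 concentrations, incubate 48 h, interpolate endpoints linearly. GI50 = concentration required for 50% inhibition of growth.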 Active and inactive are the calls of the source. Cut-off read from the data, not from the text of the source: active = GI50 up to about 1.1 µM and inactive = higher.

As for `CC[N+]1(C)CCC(O)(c2ccc(OC)cc2)C(C(=O)c2ccc(OC)cc2)C1` (stereo not given), the GI50 is 3.18 µM (inactive) in assay [1]; 2.02 µM (inactive) in assay [2]; 3.15 µM (inactive) in assay [3]; 10.2 µM in assay [4]; 2.52 µM (inactive) in assay [5]; 18.9 µM (inactive) in assay [6]. Besides, the GI50 in [7] is 2.25 µM (inactive); in assay [8] it was 16.8 µM (inactive); in [9], 6.44 µM (inactive); in [10] it was 1.98 µM (inactive); in assay [11], 1.91 µM (inactive); in assay [12], 7 µM (inactive). In addition, the GI50 in assay [13] is 17.4 µM (inactive); in assay [14], 15.1 µM (inactive); in assay [15] it was 18 µM (inactive); in [16] it was 2.34 µM (inactive); in [17] it was 4.51 µM (inactive); in [18], 17.5 µM (inactive). Further, the GI50 in assay [19] is 18.8 µM (inactive).

On to `Cn1c(Nc2ccccc2)c(/C=N\c2ccccc2)c(=O)n(C)c1=O`, for which the GI50 in assay [1] was 65.3 µM (inactive); in assay [2], > 100 µM (inactive); in assay [5], > 100 µM (inactive); in assay [6], 22.5 µM (inactive); in assay [7] it was > 100 µM (inactive); in [8] it was > 100 µM (inactive). For the same compound, the GI50 in assay [20] was 41 µM (inactive); in assay [11], > 100 µM (inactive); in [12], 75.9 µM (inactive); in [13], 94 µM (inactive); in [14] it was > 100 µM (inactive); in assay [15], 62.1 µM (inactive). Further, the GI50 in assay [17], in assay [18] and in [19] was > 100 µM (inactive) each time.

As to `COc1ccc(/C(C)=N/NC(=S)N(C)C)c(O)c1`, the GI50 in assay [2] was 4.49 µM (inactive); in assay [3] it was 2.59 µM (inactive); in assay [6], 5.61 µM (inactive); in assay [8], 27.7 µM (inactive); in [10] it was 12.9 µM (inactive); in [11] it was 7.74 µM (inactive). Besides, the GI50 in assay [14] is 16.6 µM (inactive); in assay [15], 3.84 µM (inactive); in assay [16], 36.3 µM (inactive); in assay [18], 20.9 µM (inactive); in assay [19], 4.35 µM (inactive).

In the case of `CC(=O)OCc1cc(=O)n(C)c2c3c4c(cc12)c(C)cc(=O)n4CO3`, the GI50 is 0.853 µM (active) in assay [2]; 1.23 µM (inactive) in assay [3]; 1.95 µM in [4]; 1.4 µM (inactive) in assay [5]; 1.2 µM (inactive) in assay [6]; 1.14 µM (inactive) in assay [7]. Besides, the GI50 in [9] is 0.906 µM (active); in assay [10] it was 0.711 µM (active); in [20] it was 1 µM (active); in assay [11] it was 1.51 µM (inactive); in assay [12] it was 1.3 µM (inactive); in assay [13], 1.03 µM (active). In addition, the GI50 in assay [14] is 1.64 µM (inactive); in [15], 3.56 µM (inactive); in assay [18], 2.05 µM (inactive); in assay [19], 1.34 µM (inactive).

On to `Cc1cc(NC(=O)C(=O)Cc2cnc3ccccc3n2)c(S(=O)(=O)O)cc1Cl`, for which the GI50 is > 100 µM (inactive) in [1]; > 100 µM (inactive) in [2]; > 100 µM (inactive) in [3]; above 100 µM in assay [4]; > 100 µM (inactive) in [5]; > 100 µM (inactive) in assay [7]. Besides, the GI50 in assay [8], in assay [9], in [10], in assay [20], in assay [11] and in assay [13] was > 100 µM (inactive) in each case. Also, the GI50 in assay [14], in assay [15], in [17], in assay [18] and in assay [19] was > 100 µM (inactive) throughout.

As to `c1ccc(C(NC2CCCCC2NCCNC2CCCCC2NC(c2ccccc2)(c2ccccc2)c2ccccc2)(c2ccccc2)c2ccccc2)cc1` (stereo not given), the GI50 in assay [2] is 42.4 µM (inactive); in [3], > 100 µM (inactive); in [4], above 100 µM; in [6] it was 34.1 µM (inactive); in assay [7], 44.5 µM (inactive); in [8], 17.7 µM (inactive). For the same compound, the GI50 was 14.6 µM (inactive) in assay [10]; 7.8 µM (inactive) in assay [11]; 44 µM (inactive) in [13]; > 100 µM (inactive) in assay [14]; 17.8 µM (inactive) in assay [15]; 81.7 µM (inactive) in assay [16]. Also, the GI50 is 90.4 µM (inactive) in assay [17], > 100 µM (inactive) in assay [18] and 26.2 µM (inactive) in assay [19].

Turning to `COc1ccc(OC)c(C(=O)c2cccc(C(=O)c3cc(OC)ccc3OC)n2)c1`, the GI50 in assay [1] is 68.9 µM (inactive); in assay [2], 46.8 µM (inactive); in assay [3], 32.1 µM (inactive); in assay [4], 33.1 µM; in assay [5], 18.5 µM (inactive); in [6], 37.1 µM (inactive). Moreover, the GI50 was 22.3 µM (inactive) in [7]; 80 µM (inactive) in [9]; 29.8 µM (inactive) in assay [10]; 29 µM (inactive) in assay [20]; 5.12 µM (inactive) in assay [12]; 28.6 µM (inactive) in assay [13]. The GI50 was 41 µM (inactive) in [14]; 46.1 µM (inactive) in [15]; 32.7 µM (inactive) in assay [16]; 35.5 µM (inactive) in assay [17]; 53.2 µM (inactive) in [18]; 31.1 µM (inactive) in assay [19].

Turning to `CC1(C)OC[C@@H]([C@@]2(COC(c3ccccc3)(c3ccccc3)c3ccccc3)CC=CC(=O)O2)O1`, the GI50 in [1] is 35.1 µM (inactive); in assay [2], 33.3 µM (inactive); in assay [3], 20.1 µM (inactive); in [4], 31.1 µM; in [5] it was 33.7 µM (inactive); in assay [6], 38.5 µM (inactive). The GI50 in assay [7] was 32.8 µM (inactive); in assay [8] it was 33.1 µM (inactive); in [9], 24.7 µM (inactive); in [10] it was 18.4 µM (inactive); in [11], 23.4 µM (inactive); in assay [12], 24.2 µM (inactive). Further, the GI50 in assay [13] was 37.2 µM (inactive); in assay [14], 32 µM (inactive); in assay [15] it was 38.8 µM (inactive); in assay [16], 33 µM (inactive); in assay [17], 46.5 µM (inactive); in assay [18], 43.5 µM (inactive). Besides, the GI50 in assay [19] was 28 µM (inactive).

For the compound `FC(F)(F)C1(C(F)(F)F)OC(Cl)(Cl)C(Cl)(Cl)O1`, the GI50 in assay [1] is > 10 µM (inactive); in assay [3], > 10 µM (inactive); in [4], above 10 µM; in [6], > 10 µM (inactive); in assay [8] it was > 10 µM (inactive); in [9], > 10 µM (inactive). Further, the GI50 in assay [10], in assay [20], in assay [12], in assay [13], in assay [14] and in assay [15] was > 10 µM (inactive) each time. The GI50 in assay [17], in [18] and in assay [19] was > 10 µM (inactive) in each case.

As for `C=C(C=O)[C@@H]1C2OC(=O)C(=C)[C@@H]2CC(O)[C@@]1(C)CC` (stereo not given in full), the GI50 in assay [1] was 3.32 µM (inactive); in assay [2] it was 2.08 µM (inactive); in assay [3], 5.66 µM (inactive); in assay [4], 6.22 µM; in assay [5], 2.25 µM (inactive); in [6] it was 50.2 µM (inactive). For the same compound, the GI50 in assay [7] was 3.27 µM (inactive); in [9], 6.21 µM (inactive); in [10] it was 1.87 µM (inactive); in assay [11] it was 2.93 µM (inactive); in assay [12], 2.11 µM (inactive); in [13], 9.29 µM (inactive). The GI50 in [14] was 3.83 µM (inactive); in assay [15] it was > 60.5 µM (inactive); in assay [16], 3.4 µM (inactive); in assay [17], 15.7 µM (inactive); in assay [18], 11.9 µM (inactive); in [19], 4.12 µM (inactive).

Turning to `NCCCNCCSP(=O)(O)O` [AMIFOSTINE], the GI50 in assay [2] is 512 µM (inactive); in assay [3], 385 µM (inactive); in assay [4], above 274 µM; in [5] it was 176 µM (inactive); in assay [6], > 321 µM (inactive); in [7], > 750 µM (inactive). Besides, the GI50 in [9] was > 335 µM (inactive); in [10], 389 µM (inactive); in assay [20] it was > 750 µM (inactive); in assay [11], > 452 µM (inactive); in assay [12] it was > 736 µM (inactive); in [13], > 750 µM (inactive). For the same compound, the GI50 is > 750 µM (inactive) in [14], > 750 µM (inactive) in assay [15], > 750 µM (inactive) in assay [18] and > 710 µM (inactive) in assay [19].

Consider `Cn1c(/C=C/CO)c(CO)c2c1C(=O)C=C(N1CC1)C2=O` [APAZIQUONE], for which the GI50 in [2] was 0.184 µM (active); in assay [3], < 0.0122 µM (active); in [4], below 0.01 µM; in assay [5], 0.0259 µM (active); in assay [6], < 0.01 µM (active); in assay [7] it was 0.0195 µM (active). Besides, the GI50 in assay [9] is < 0.01 µM (active); in assay [10], 0.0102 µM (active); in assay [20], < 0.01 µM (active); in assay [11] it was 0.0172 µM (active); in assay [12], < 0.01 µM (active); in [13], < 0.01 µM (active). Besides, the GI50 in [14] was 0.0198 µM (active); in assay [15], < 0.0134 µM (active); in [18] it was < 0.01 µM (active); in [19], < 0.01 µM (active).
